Here are results for 4 compounds from patent publication US10328056B2, “Priming of pancreatic tumor cells and cancer stem cells to TRAIL-induced apoptosis” (Alliance of Cardiovascular Researchers, priority 2014, dated 2019).

The subject of one data set is MiaPaCa2 tumors. The experiment in a line: Orthotopic MiaPaCa2 tumor model. The class given is in vivo, mice. As to conditions: for #tumors at 6 wks: JNKi 1 mg/kg oral 5x/week, TRAIL 1 mg/kg i.p. 2x/week, gemcitabine 80 mg/kg 2x/week; for % tumor presence at 6 wks / Kidney mets / Liver mets / Peritoneal mets / Spleen mets: same regimens; for Kidney mets / Liver mets / Peritoneal mets / Spleen mets: at 6 wks. Here is the method: Age-matched male swiss nu/nu mice (6-8 weeks old) were injected orthotopically with pancreatic tumor cells. All procedures were performed in accordance with the guidelines of the Institutional Animal Care and Use Committee at The University of Texas MD Anderson Cancer Center (ACDF Protocol #12-12-12631). Animals were anesthetized with isoflurane anesthesia (1%-3% via inhalation), and an incision was made in the left abdominal flank. The spleen was located and extracted, and 1×10^6 pancreatic cells in 50 μL of PBS were injected into the underlying tail of the pancreas. The abdominal wall was closed with sterile absorbable sutures, and wound clips were applied to the skin. Animals were monitored daily and after two weeks of untreated tumor growth randomly assigned to different treatment groups: control (no treatment), JNKi (1 mg/kg) was administered by oral gavage five times per week; gemcitabine (80 mg/kg) or TRAIL (1 mg/kg) was injected intraperitoneally with a 27-G needle two times per week or JNKi and TRAIL together at the dosages indicated above. Weight, tumor growth, and health status were clinically followed for 4 weeks. At day 42, animals were euthanized, and blood and tissues were collected for postmortem analysis.

In data set [1] the test system is adipose tissue-derived stem cells (ASCs). The experiment in a line: MTT proliferation assay of adipose tissue-derived stem cells. The class given is cell-based, human. As to conditions: 10.0 μM or 20.0 μM. As for the experimental part: (§1) Cells were seeded in a 96-well plate at a density of 4000 to 5000 cells per well (70%-80% confluence) in triplicate. Non-adherent cells were washed with PBS, and different substrate dilutions were added. After 24 hours, 3-(4,5-dimethylthiazol-2-yl)-2,5-diphenyltetrazolium bromide (MTT) assay (Roche, Mannheim, Germany) was performed according to the manufacturer's instructions. Results were measured at 570 nm and background at 650 nm on a microplate reader (Molecular Devices).
For measurement of cell proliferation, cells were seeded into 24-well plates. After 24 hours, cells were washed with PBS, and medium with different dilutions of JNKi was added. Viable cells were then counted daily with a standard trypan blue stain protocol.

Data set [2] shares this test system. The data set can be described thus: Differentiation assay of ASCs. The class given is cell-based, human. Here is the method:
Adipose tissue-derived stem cells were seeded in the following concentrations: adipogenic differentiation, 1×10^4 cells/cm^2; chondrogenic differentiation, 1.6×10^7 cells/cm2; and osteogenic differentiation, 5×10^3 cells/cm^2. After a 2-hour incubation with 20% FBS-containing medium, cells were washed, and the respective differentiation media were added (Invitrogen StemPro differentiation kits). Differentiation media were changed twice a week. After 14 to 21 days, cells were fixed with 4% formaldehyde for 30 minutes and stained with Oil Red O for lipid vesicles (adipogenic differentiation), Alcian Blue for proteoglycans (chondrogenic differentiation), and Alizarin Red S for calcium deposits (osteogenic differentiation) as reported previously. Bai X, Alt E. “Myocardial regeneration potential of adipose tissue-derived stem cells” Biochemical and Biophysical Research Communications. 401 (2010) 321-6.

Data set [3] deals with CSC-enriched pancreatic cancer spheres. The experiment in a line: Sphere forming assay. The data set is classed as cell-based. As to conditions: high-dose treatment group (control 40%). Here is the method:
Sphere-forming medium consisted of MEMα supplemented with L-glutamine, putrescine, insulin (all from Sigma-Aldrich), […] (20 ng/mL), basic fibroblast growth factor (10 ng/mL), and B-27 supplement (Gibco). For first generation, attached cells were trypsinized, washed twice with PBS, and seeded in sphere-forming medium as single cell suspensions with clonal density (5,000-10,000 cells/mL) on ultra-low-attachment plates (Corning). After 7 to 10 days, spheres were harvested by gravitation in a tube, trypsinized, washed twice with PBS, and reseeded as described above for the next higher generation. To quantify sphere-forming ability, cells were prepared as described in the preceding paragraph and seeded in 96-well ultra-low-attachment plates at 500 to 1000 cells per well. Medium was supplemented with 1% methylcellulose to prevent cell-cell attachments. Medium was added or renewed every 3 days, and spheres were quantified at day 10 to 12.

The nature of a further data set: MTT cell viability assay. The data set is classed as cell-based. The conditions noted are these: human, low-dose 0.5 μM or 1.0 μM. As for the experimental part: as §1
In general terms: Formazan colour is commonly taken as a measure of viable cells.

Another data set relates to IL-8, CXCR1, DcR1, c-Jun. The experiment in a line: qRT-PCR of IL-8 axis genes. The data set is classed as cell-based. As to conditions: IL-8 treatment. Here is the method: (§2) For total RNA extraction, cells were homogenized with TRIzol (Invitrogen). Phase separation was performed by the addition of chloroform and subsequent centrifugation steps. Aqueous phase of samples was collected, and RNA was precipitated by isopropyl alcohol. After washing, RNA was redissolved in DEPC-treated water, and RNA quality and quantity were measured with a Nanodrop ND-1000 Spectrophotometer (Thermo Scientific). For cDNA synthesis, the iScript Reverse Transcription Supermix (Bio-Rad) was used according to the manufacturer's protocol, and the reaction mix was incubated in a thermal cycler (Bio-Rad MyIQ Single-Color RT-PCR Detection System iCycler) with the following protocol: priming (5 minutes at 25° C.), reverse transcription (30 minutes at 42° C.), and reverse transcription inactivation (5 minutes at 85° C.). qRT-PCR was performed using iQ SYBR Green Supermix (Bio-Rad) according to the following protocol: initial denaturation and enzyme activation (1 cycle at 95° C. for 3 minutes), denaturing (40 cycles at 95° C. for 15 seconds) with annealing and extension (40 cycles at 55° C. for 30 seconds), and melting curve (1 cycle at 55° C.-95° C. in […] for 30 seconds). The Ct (cycle threshold) value was measured in absolute quantification (of cycles of amplification) and compared to β-actin, which served as a housekeeping gene.

In data set [4] the test system is TRAIL-resistant L3.6pl cells (L3.6plTR). The data set can be described thus: Cell viability / cell death in TRAIL-resistant cells. The class given is cell-based. Here is the method:
as §1

Another data set relates to L3.6pl cells. The experiment in a line: MTT cell viability assay. The data set is classed as cell-based. The conditions noted are these: compared to TRAIL alone. As for the experimental part: as §1
A further data set concerns DcR1. The experiment in a line: qRT-PCR of TRAIL decoy receptor. The class given is cell-based. As to conditions: vs control samples. Here is the method:
as §2
A general note: Quantitative PCR measures a nucleic acid by following its amplification.

Data set [5] deals with parental pancreatic cancer cells. The data set can be described thus: MTT cell viability assay, single agents. The data set is classed as cell-based. The conditions noted are these: JNKi 0.5 μM alone; rhTRAIL 10 ng/mL alone. As for the experimental part: as §1
Another data set deals with DR4 and DR5. The experiment in a line: qRT-PCR of TRAIL death receptors. The class given is cell-based. The conditions noted are these: vs control samples. As for the experimental part:
as §2

The test system of another data set is L3.6pl parental cells. The data set can be described thus: Acridine orange/ethidium bromide staining. The data set is classed as cell-based. As to conditions: 50 ng/mL, 24 hours. An excerpt:
(§3) According to a protocol adapted from Todaro et al. (supra), attached cells or spheres were washed with PBS, stained with acridine orange/ethidium bromide, and visualized immediately with fluorescent microscopy.

The subject of a further data set is L3.6pl spheres. The data set can be described thus: Acridine orange/ethidium bromide staining. The data set is classed as cell-based. As to conditions: 50 ng/mL, 24 hours.
Description: as §3

A further data set relates to p-JNK. The data set can be described thus: PathScan p-SAPK/JNK sandwich ELISA. The class given is cell-based. As to conditions: L3.6plTR cells vs untreated control. As for the experimental part:
Protein lysates were obtained from adherent cells or spheres after 1-hour of incubation with JNKi and/or TRAIL. Protein quantification was performed, and PathScan Sandwich ELISA Antibody Pair (Cell Signaling Technologies) was performed according to the manufacturer's instructions.

The subject of the next data set is IL-8 secretion. The experiment in a line: Human CXCL8/IL-8 ELISA of culture supernatant. The class given is cell-based. As for the experimental part: Cell culture supernatant was obtained after 24-hour treatments in triplicate. A human CXCL8/IL-8 Quantikine ELISA kit (R&D Systems) was used to measure human IL-8 according to the manufacturer's protocol. An IL-8 standard curve was performed to determine concentrations (in pg of cytokine per μL).
(In general: ELISA stands for enzyme-linked immunosorbent assay.)

Data set [6] deals with CSC-enriched pancreatic cancer spheres. The data set can be described thus: MTT viability assay, spheres versus parental cells. The class given is cell-based. As to conditions: 25 ng/mL and 50 ng/mL. As for the experimental part:
as §1

As usually defined, the viability is a per cent measure of how many cells are alive, often set against a control. A high value points to less harm to the cells.

As to `Nc1ccn([C@@H]2O[C@H](CO)[C@@H](O)C2(F)F)c(=O)n1` [GEM, Gemcitabine], in the data set with MiaPaCa2 tumors, the “#tumors at 6 wks” value is 5/5, the “% tumor presence at 6 wks” value was found to be 100%, the Kidney mets came out at 0 and the Liver mets worked out at 1. In the data set with MiaPaCa2 tumors, this compound yielded a Peritoneal mets of 1 and a Spleen mets of 3.
Take `Oc1c2ccccc2c2c3c(cccc13)N=N2` [JNKi, SP600125]: in data set [1], the “cell proliferative capacity, lower compared to untreated ASCs” value turned out to be 20%. Moreover, in the data set on MiaPaCa2 tumors, the “#tumors at 6 wks” value is 4/4, the “% tumor presence at 6 wks” value turned out to be 100%, the Kidney mets is reported as 0 and the Liver mets stood at 1. In the data set with MiaPaCa2 tumors, this compound registered a Peritoneal mets of 0 and a Spleen mets of 1. In addition, the “differentiation into osteoblasts, chondrocytes, adipocytes” value in [2] is reported as “functionally unimpaired”. The “spheres bigger than 150 μm in diameter” value in data set [3] came out at 0%. In addition, the viability at 24 h in “MTT cell viability assay” (L3.6pl cells, 24 hours) is 80%. In “MTT cell viability assay” (MiaPaCa2 cells), the viability at 24 h was 80%.
As to “IL-8: interleukin-8 added to cells in combination with TRAIL”, in the data set on IL-8, CXCR1, DcR1, c-Jun, the DcR1 expression entry is reported as “upregulation of the decoy receptor DcR1”; the “IL-8 and CXCR1 expression” value is “autostimulated IL-8 and CXCR1 expression”. Besides, the “cell viability / apoptosis in combination with TRAIL” value in data set [4] (compared to TRAIL alone) was “neutralized the apoptosis-inducing power of TRAIL”. Besides, the “cell viability / apoptosis in combination with TRAIL” value with L3.6pl cells is reported as “neutralized the apoptosis-inducing power of TRAIL”.
As for “TRAIL: recombinant human TNF-related apoptosis-inducing ligand from R&D Systems”, the “expression of DcR1” value in the data set with DcR1 is “increased the expression of the decoy receptor DcR1”. The cell viability result in data set [5] is given as “only modest effects”. In the data set on MiaPaCa2 tumors, the “#tumors at 6 wks” value is recorded as 10/10, the “% tumor presence at 6 wks” value is 100%, the Kidney mets is given as 0 and the Liver mets was found to be 2. Moreover, in the data set with MiaPaCa2 tumors, the Peritoneal mets worked out at 1 and the Spleen mets came to 0. For the same compound, in the data set on DR4 and DR5, the “expression of DR4 and DR5” value is “reduced the presence of the apoptosis receptors DR4 and DR5”. The “differentiation into osteoblasts, chondrocytes, adipocytes” value in [2] is “functionally unimpaired”. Moreover, the apoptosis entry in the data set with L3.6pl parental cells is “robust apoptosis”. Besides, the viability of spheres entry in the data set on L3.6pl spheres was “almost entirely viable”. For the same compound, the p-JNK levels entry with p-JNK is on record as “increased p-JNK levels”. In addition, the “TRAIL level at peak IL-8 secretion” value in the data set with IL-8 secretion (Panc1 cells, 24 hours) is 50 ng/mL. Also, the IL-8 secretion result in the data set with IL-8 secretion (TRAIL with or without JNKi) was “upregulates IL-8 secretion”. Further, the IL-8 production result with IL-8 secretion (increasing doses of TRAIL, 24 hours) was “increased dose-dependently”. The cell death entry in data set [4] (TRAIL doses up to 100 ng/mL) is on record as “detectable cell death only in small numbers of cells”. Further, the “resistance of spheres to TRAIL-induced cell death vs parental cells” value in data set [6] is reported as “significantly more resistant”.
